Each structure is given as a SMILES string. The source made the active and inactive calls. No cut-off for these calls is given here.

Data set [1] can be described thus: Toxicity in C57BL/6 mouse model of DSS-induced acute ulcerative colitis assessed as effect on spleen tissue at 100 to 300 mg/kg, po administered once a day for 7 days by H and E staining based analysis. The class given is organism-based. The settings on record: in vivo, 168 h, dose 100-300 mg/kg, time 7 day.
For data set [2], the system named is DLD-1. Put plainly: Inhibition of TNF-alpha induced NF-kB activation in human DLD-1 cells assessed as decrease in phosphorylated IkappaBalpha protein expression preincubated for 4 hrs and followed TNF-alpha stimulation and measured after 10 mins by Western blot analysis. The class given is cell-based. The settings on record: dose 12.5-50 µM, time 250.0 min. (In general: In western blotting, separated proteins are transferred to a membrane and probed.)

Data set [3] can be described thus: Selectivity index, ratio of CC50 for cytotoxicity against LPS/IFNgamma induced mouse RAW264.7 cells to IC50 for antiinflammatory activity in mouse RAW264.7 cells assessed as inhibition in LPS/IFNgamma-induced NO production. The settings on record: RAW264.7 cells induced with LPS/IFNgamma, read-out: Ratio IC50. The class given is toxicity, cell-based.
Data set [4] can be described thus: Cytotoxicity against LPS/IFNgamma induced mouse RAW264.7 cells assessed as inhibition of cell growth preincubated for 24 hrs followed by LPS/IFNgamma stimulation and measured after 24 hrs by SRB assay. The class given is toxicity, cell-based. The settings on record: RAW264.7 cells induced with LPS/IFNgamma, time 48 hrs. A general note: In SRB staining, fixed cells bind dye roughly in proportion to their protein.

Data set [5] is described as follows: Toxicity in Kunming mouse assessed as increase in body weight at 1111 mg/kg, po measured for 15 days (reference value: 12.38%). The settings on record: in vivo, 360 h, time 15 day. The class given is organism-based.
Data set [6] deals with HCT-116. Put plainly: Inhibition of TNF-alpha induced NF-kB activation in human HCT-116 cells assessed as decrease in phosphorylated IKK protein expression preincubated for 4 hrs and followed TNF-alpha stimulation and measured after 10 mins by Western blot analysis. In kind it is cell-based. The settings on record: dose 12.5-50 µM, time 250.0 min.
The nature of data set [7]: Toxicity in C57BL/6 mouse model of DSS-induced acute ulcerative colitis assessed as effect on liver tissue at 100 to 300 mg/kg, po administered once a day for 7 days by H and E staining based analysis. The class given is organism-based. The settings on record: in vivo, 168 h, dose 100-300 mg/kg, time 7 day.
Data set [8] concerns Mus musculus. Kind of data set: Anti-inflammatory activity in po dosed C57BL/6 mouse model of DSS-induced acute ulcerative colitis assessed as reduction in IFN-gamma mRNA expression in colon administered once a day for 7 days by RT-PCR analysis. In kind it is functional, organism-based. The settings on record: dose 100-300 mg/kg, time 7.0 day.
For data set [9], the system named is DLD-1. Put plainly: Inhibition of TNF-alpha induced MAPK signaling pathway activation in human DLD-1 cells assessed as decrease in phospho-JNK protein expression at 12.5 uM preincubated for 4 hrs and followed TNF-alpha stimulation and measured after 10 mins by Western blot analysis. In kind it is cell-based. The settings on record: time 250.0 min.
Data set [10] can be described thus: Toxicity in Kunming mouse assessed as number of mouse survived at 667 mg/kg, po measured for 15 days. In kind it is organism-based. The settings on record: in vivo, 360 h, time 15 day.
The nature of data set [11]: Toxicity in C57BL/6 mouse model of DSS-induced acute ulcerative colitis assessed as effect on stomach at 100 to 300 mg/kg, po administered once a day for 7 days by H and E staining based analysis. The class given is organism-based. The settings on record: in vivo, 168 h, dose 100-300 mg/kg, time 7 day.
Data set [12] has as its system HCT-116. Kind of data set: Activation of MAPK signaling pathway in TNF-alpha stimulated human HCT-116 cells assessed as increase in phospho-JNK protein expression at 50 uM preincubated for 4 hrs and followed TNF-alpha stimulation and measured after 10 mins by Western blot analysis. The class given is cell-based. The settings on record: filed as activator, time 250.0 min.

The subject of data set [13] is Mus musculus. Put plainly: Anti-inflammatory activity in po dosed C57BL/6 mouse model of DSS-induced acute ulcerative colitis assessed as reduction in CCL2 mRNA expression in colon administered once a day for 7 days by RT-PCR analysis. In kind it is functional, organism-based. The settings on record: dose 100-300 mg/kg, time 7.0 day.

As to `COC(=O)C1=C(C(=O)OC)C2OC1CC2C#Cc1ccc(C)cc1` (stereo not drawn), the Activity entry is “Non-Toxic” in data set [1]; 6.01% in [5]; “Non-Toxic” in data set [7]; “Dose-Dependent Effect” in the data set with Mus musculus [8]; 0 in data set [10]; “Non-Toxic” in data set [11]. Also, the Activity result with Mus musculus [13] was “Dose-Dependent Effect”. The inhibition entry in the data set on DLD-1 [2] and with HCT-116 [6] was “Dose-Dependent Effect” in each case. In addition, the selectivity ratio in [3] was 4.57. Moreover, in data set [4], the CC50 at 24 h came out at 12.2 µM. Also, in the data set on DLD-1 [9], the inhibition result is “Active”. Moreover, in the data set with HCT-116 [12], the result was Active.

For orientation: CC50 means the concentration at which the toxic effect on the cells reaches its halfway point.

The record behind these values is ChEMBL document CHEMBL5634091, “Cantharidin analogue alleviates dextran sulfate sodium-induced colitis in mice by inhibiting the activation of NF-κB signaling” (Eur J Med Chem, 2023).
